Test results from patent US12662473B2, “Inhibitors for programmed cell necrosis and preparation method therefor and use thereof” (SHANGHAI INSTITUTE OF ORGANIC CHEMISTRY, CHINESE ACADEMY OF …, priority 2019, dated 2026).
Like-named read-outs stand apart in the source and are kept apart here.

Columns and labels:
L929 cells = test: TNF-induced programmed cell necrosis inhibition, Cell Titer-Glo viability; type: cell-based, mouse; conditions: Mus musculus, read-out: EC50 inhibitory activity on programmed cell necrosis
Excerpt: (§1) The adopted biological assay protocol was: the programmed necroptosis effect of compounds on TNF-induced in FADD (Fas-Associated Death Domain) deficient Jurkat cells and L929 cells.
(§2) In order to verify the inhibitory effect of the compounds of the present invention on programmed cell necrosis at the cellular level, cell types closely related to the RIP1 pathway, namely FADD deficient Jurkat cells (human peripheral blood leukemia T cell line) and L929 cells, were selected. Two different stimulation methods were used: tumor necrosis factor (TNFα) used alone, or TNFα used in combination with mitochondria-derived cysteine aspartate activator (SMAC). Cells viability was calculated by detecting chemiluminescence values, and the biological activity of the compound for inhibiting programmed cell necrosis can be obtained.
(§3) Methods: FADD deficient Jurkat cells: FADD deficient Jurkat cells (human peripheral blood leukemia T cell line) were cultured in vitro. After growing to the logarithmic growth phase, the cells were collected, centrifuged at 1000 rpm for 5 min, the supernatant was discarded, and the cell concentration was adjusted to 2.5×10^5/mL. Cells were seeded into 384-well plates, 40 μl per well. 5 μL of Smac (50 nM) diluted in cell culture medium and 5 μL of each compound were added to the corresponding wells. After pretreatment at 37° C. for 1 h, 5 μL of TNFα (50 ng/mL) diluted in cell culture medium was added to each well of the stimulation group, and 5 μL of the culture medium was added to the control group. The plate was cultured in a cell incubator (37° C., 5% CO2) for 14 h, and 15 μl of Cell Titer-Glo solution was added to each well, then incubated for 30 min at room temperature, and intracellular ATP level was measured by detecting luminescence. The unstimulated DMSO control wells were taken as 100% cell viability. L929 cells: The L929 cells (mouse fibroblasts) were cultured in vitro, digested and diluted to 6.25×10^4/ml, and the cells were seeded into 384-well plates, 40 μl per well. The plate was placed in a cell incubator (37° C., 5% CO2) for 12 hours. 5 μL of Smac (500 nM) diluted in cell culture medium and 5 μL of each compound were added to the corresponding wells. After pretreatment at 37° C. for 1 h, 5 μL of TNFα (500 ng/mL) diluted in cell culture medium was added to each well of the stimulation group, and 5 μL of the culture medium was added to the control group. After the plate was cultured for 14 h in a cell incubator (37° C., 5% CO2), 15 μl of Cell Titer-Glo solution was added to each well. The plate was incubated at room temperature for 30 min, and intracellular ATP level was measured by detecting luminescence. The unstimulated DMSO control wells were taken as 100% cell viability. EC50 values of the compounds were calculated using Prism Graphpad statistical software.
L929 cells: The L929 cells (mouse fibroblasts) were cultured in vitro, digested and diluted to 6.25×10^4/ml, and the cells were seeded into 384-well plates, 40 μl per well. The plate was placed in a cell incubator (37° C., 5% CO2) for 12 hours. 5 μL of Smac (500 nM) diluted in cell culture medium and 5 μL of each compound were added to the corresponding wells. After pretreatment at 37° C. for 1 h, 5 μL of TNFα (500 ng/mL) diluted in cell culture medium was added to each well of the stimulation group, and 5 μL of the culture medium was added to the control group. After the plate was cultured for 14 h in a cell incubator (37° C., 5% CO2), and 15 μl of Cell Titer-Glo solution was added to each well, then incubated at room temperature for 30 min, and intracellular ATP level was measured by detecting luminescence. The unstimulated DMSO control wells were taken as 100% cell viability.

FADD−/− Jurkat cells = test: as above; type: cell-based; conditions: Homo sapiens, Jurkat
Excerpt: as §1, §2, §3
FADD deficient Jurkat cells: FADD deficient Jurkat cells (human peripheral blood leukemia T cell line) were cultured in vitro. After growing to the logarithmic growth phase, the cells were collected, centrifuged at 1000 rpm for 5 min, the supernatant was discarded, and the cell concentration was adjusted to 2.5×10^5/mL. Cells were seeded into 384-well plates, 40 μl per well. 5 μL of Smac (50 nM) diluted in cell culture medium and 5 μL of each compound were added to the corresponding wells. After pretreatment at 37° C. for 1 h, 5 μL of TNFα (50 ng/mL) diluted in cell culture medium was added to each well of the stimulation group, and 5 μL of the culture medium was added to the control group. After the plate was cultured in a cell incubator (37° C., 5% CO2) for 14 h, 15 μl of Cell Titer-Glo solution was added to each well. The mixture was incubated for 30 min at room temperature, and intracellular ATP level was measured by detecting luminescence. The unstimulated DMSO control wells were taken as 100% cell viability.

[1] = L929, 14 h, L929 cells (mouse), TNFa + SM164
[2] = 14 h, TNFa + SM164, read-out: EC50 inhibitory activity on programmed cell necrosis
[3] = TNFa, read-out: EC50 inhibitory activity on programmed cell necrosis

SMILES | EC50 (L929 cells; [1]) [nM] | EC50 (L929 cells; L929, L929 cells (mouse), TNFa) [nM] | EC50 (FADD−/− Jurkat cells; [2]) [nM] | EC50 (FADD−/− Jurkat cells; [3]) [nM]
CC(C)(Oc1ccc(Cl)cc1F)C(=O)N1CCCC1c1ccc(C(N)=O)cc1 (centres unmarked) [QY-5-85] | > 10000 | > 10000 | > 10000 | 5340
Cc1ccc(C2CC=NN2C(=O)C(C)(C)Oc2ccc(Cl)cc2F)cc1 (centres unmarked) [QY-6-47] | 49 | 18 | 90 | 5
CC(C)(Oc1ccc(Cl)cc1F)C(=O)N1CCC[C@H]1c1cc(F)cc(F)c1 [QY-6-60] | 402 | 130 | 707 | 17
CC(C)(Oc1ccc(Cl)cc1F)C(=O)N1CCC[C@H]1c1ccc(F)c(F)c1 [QY-6-61] | 218 | 75 | 379 | 12
CC(C)(Oc1ccc(Cl)cc1F)C(=O)N1CCC[C@H]1c1ccc(F)cc1 [QY-6-62] | 174 | 44 | 117 | 3
CNC(=O)c1ccc(OC(C)(C)C(=O)N2CCCC2c2ccc(C)cc2)c(F)c1 (centres unmarked) [QY-6-63] | 7800 | 3150 | > 10000 | 4290
CC(C)(Oc1ccc(Cl)cc1)C(=O)N1CCC[C@H]1c1ccccc1 [QY-6-83] | 323 | 40 | 613 | 56
CC(C)(Oc1ccc(Cl)cc1F)C(=O)N1CCC[C@H]1c1ccccc1 [QY-6-84] | 216 | 25 | 439 | 27
[2H]c1c([2H])c([C@]2([2H])CCCN2C(=O)C(C)(C)Oc2ccc(Cl)cc2F)c([2H])c([2H])c1C([2H])([2H])[2H] [QY-7-7] | 24 | 1 | 200 | 5
COc1cc(OC(C)(C)C(=O)N2N=CCC2c2ccc(C)cc2)ccc1Cl (centres unmarked) [QY-7-101] | 10 | 11 | 1100 | 630
CC(C)(Oc1ccc(Cl)cc1F)C(=O)N1N=CCC1c1ccc(Cl)cc1 (centres unmarked) [QY-8-101] | 15 | 5.8 | 692 | 15
COc1cc(Cl)ccc1OC(C)(C)C(=O)N1CCCC1c1ccc(C)cc1 (centres unmarked) [QY-9-8] | 138 | 0.44 | 1.6 | 0.43
COc1cc(Cl)ccc1OC(C)(C)C(=O)N1N=CCC1c1ccc(Cl)cc1 (centres unmarked) [QY-9-32] |  | 35.7 | 842 | 26.6
COc1cc(Cl)ccc1OC(C)(C)C(=O)N1CCCC1c1ccc(Cl)cc1 (centres unmarked) [QY-9-43] |  | 21 | 1150 | 0.16
COc1cc(Cl)ccc1OC(C)(C)C(=O)N1CCC[C@H]1c1ccc(Cl)cc1 [QY-10-1] | 3.6 | 0.79 | > 10000 | > 10000
CC(=O)Nc1cc(Cl)ccc1OC(C)(C)C(=O)N1CCCC1c1ccc(Cl)cc1 (centres unmarked) [QY-10-92] | > 10000 | > 10000 | > 10000 | > 10000
COc1cc(Cl)ccc1OC(C)(C)C(=O)N1N=CCC1c1ccc(C)cc1 (centres unmarked) [QY-10-96] | 6.31 | 0.151 | 633 | 13.4
COc1cc(Cl)ccc1NC(C)(C)C(=O)N1CCCC1c1ccc(Cl)cc1 (centres unmarked) [QY-10-104] | 66.2 | 13.6 | 794 | 106

SMILES | EC50 (L929 cells; [1]) [nM] | EC50 (L929 cells; L929, L929 cells (mouse), TNFa) [nM] | EC50 (FADD−/− Jurkat cells; [2]) [nM] | EC50 (FADD−/− Jurkat cells; [3]) [nM]
[2H]c1c([2H])c([C@]2([2H])CCCN2C(=O)C(C)(C)Oc2ccc(Cl)cc2OC)c([2H])c([2H])c1C([2H])([2H])[2H] [QY-11-1] | 2.66 | 0.0803 |  | 4.05
CC(C)(C(=O)N1CCCC1c1ccc(Cl)cc1)C1N=Nc2ccc(Cl)cc21 (centres unmarked) [QY-11-9A] | > 10000 | 2530 | > 10000 | > 10000
CC(C)(C(=O)N1CCCC1c1ccc(Cl)cc1)n1ncc2cc(Cl)ccc21 (centres unmarked) [QY-11-9B] | 3440 | 0.00171 | 3340 | 2830
CC(C)(C(=O)N1CCCC1c1ccc(Cl)cc1)n1nnc2ccc(Cl)cc21 (centres unmarked) [QY-11-11A] | 0.0772 | 0.0188 | > 10000 | > 10000
CC(C)(C(=O)N1CCCC1c1ccc(Cl)cc1)n1nnc2cc(Cl)ccc21 (centres unmarked) [QY-11-11B] | 0.12 | 0.0192 | > 10000 | > 10000
CC(C)(C(=O)N1CCCC1c1ccc(Cl)cc1)n1ccc2cc(Cl)ccc21 (centres unmarked) [QY-11-15B] | > 10000 | > 10000 | > 10000 | > 10000
CC(C)(C(=O)N1CCCC1c1ccc(Cl)cc1)n1cnc2ccc(Cl)cc21 (centres unmarked) [QY-11-16A] | > 10000 | > 10000 | > 10000 | > 10000
CC(C)(C(=O)N1CCCC1c1ccc(Cl)cc1)n1cnc2cc(Cl)ccc21 (centres unmarked) [QY-11-16B] | > 10000 | > 10000 | > 10000 | > 10000
CC(C)(Oc1ccc(C#N)cc1)C(=O)N1CCCC1c1ccc(Cl)cc1 (centres unmarked) [QY-11-36] | 99.5 |  | 885 | 137
CC(C)(Oc1ccc2ncsc2c1)C(=O)N1CCCC1c1ccc(Cl)cc1 (centres unmarked) [QY-11-44] | 677 | 0.0105 | 1320 | 212
CC(C)(Oc1ccc(C#N)cc1F)C(=O)N1CCCC1c1ccc(Cl)cc1 (centres unmarked) [QY-11-45] | 108 | 0.7 | 915 | 139
COc1cc(C#N)ccc1OC(C)(C)C(=O)N1CCCC1c1ccc(Cl)cc1 (centres unmarked) [QY-12-11] | 16.6 | 6.06 | 178 | 6.72
[2H]c1c([2H])c([C@]2([2H])CCCN2C(=O)C(C)(C)Oc2ccc(C#N)cc2OC)c([2H])c([2H])c1C([2H])([2H])[2H] [QY-12-14] | 7.63 | 3.16 | 45.3 | 3.65
Cn1cnc2ccc(OC(C)(C)C(=O)N3CCCC3c3ccc(Cl)cc3)cc21 (centres unmarked) [QY-12-32] | 1160 | 243 | 2420 | 535
Cc1ccc(C2CCCN2C(=O)C(C)(C)Oc2ccc(Cl)cn2)cc1 (centres unmarked) [QY-13-42] | 322 | 102 | 4900 | 0.0395
Cc1ccc(C2CCCN2C(=O)C(C)(C)Oc2ccc(C#N)cn2)cc1 (centres unmarked) [QY-13-68] | 4.52 | 2.06 | 2420 | 27
Cc1ccc(C2CCCN2C(=O)C(C)(C)Oc2ncc(Cl)cn2)cc1 (centres unmarked) [QY-13-70] | 1930 | 221 | > 10000 | 477
Cc1ccc(C2CCCN2C(=O)C(C)(C)Nc2ncc(Cl)cn2)cc1 (centres unmarked) [QY-13-86] | > 10000 | > 10000 | > 10000 | > 10000
